Test results published in patent US20100056564A1, “Association of an anti-atherothrombotic agent and an anti-platelet-aggregation agent” (LES LABORATOIRES SERVIER, priority 2003, published 2010).

Tested on: collagen-induced platelet aggregation
Assay: Inhibition of collagen-induced platelet aggregation ex vivo
Type: in vivo, humans
Conditions: collagen 5 μg/ml; citrated platelet-rich plasma (PRPc), aggregometer; oral administration to 18 volunteers; compound A 10 mg, clopidogrel 75 mg
Experimental: Measurement of the Inhibition of Collagen-Induced Platelet Aggregation:
10 mg of compound A and 75 mg of clopidogrel were administered orally for three days to 18 volunteers previously treated with 75 mg of clopidogrel for 7 days. The effect of the association of compound A and clopidogrel was compared with the effects of compound A and clopidogrel administered separately.
In the course of the test, the percentage inhibition of platelet aggregation ex vivo induced by collagen (5 μg/ml) was calculated by measuring the platelet aggregation on citrated platelet-rich plasma (PRPc) with the aid of an aggregometer.

## COC(=O)[C@H](c1ccccc1Cl)N1CCc2sccc2C1 [clopidogrel]
  percentage inhibition of platelet aggregation ex vivo induced by collagen: 11%
